From PMC11172478, “1,3,5-Triazine as Branching Connector for the Construction of Novel Antimicrobial Peptide Dendrimers: Synthesis and Biological Characterization” (International Journal of Molecular Sciences, 2024)
In brackets after ≈: the same amount, converted by molar mass. Read-outs that look alike come from different tables or passages of the source. Starred links: 1 amine or outer side, 2 acyl side, 3 side chain; linkers in the order of their positions; H or OH if unused. Positions of bridges follow the written chain, without caps; N, C: chain ends. Non-standard residues stand in square brackets, D forms with d. Residues, ends and D or L forms follow the SMILES beside them. Chains are numbered I, II in the order given. *: point of attachment. X3 = CC(=O)NCCNc1nc(NCCNC(C)=O)nc(N([C@@H](CC(C)C)C(=O)[*:2])[*:1])n1; X4 = CC(=O)NCCNc1nc(NCCNC(C)=O)nc(Oc2ccc(C(=O)*)cc2)n1; X2 = CC[C@H](C)CCCCC(=O)*; Dab = NCC[C@H](N)C(=O)O

Experiments:
Assay type in all cases: cell-based
E. coli 13974 = experiment: microbe, parasite or virus in culture; details: Escherichia coli; MDR isolate E. coli 13974; read-out: MIC
Protocol: (§1) E. coli ATCC 25922, P. aeruginosa ATCC 27853, S. aureus ATCC 29213, P. aeruginosa 666 SJD (ciprofloxacin-resistant), P. aeruginosa P12, P13, P15, P16 and P17 (MDR isolates) and E. coli 7987, 5545, 8248, 13974, 7259 and 208691 (MDR isolates) from our own collection were included in the present study.
(§2) The antimicrobial activity of the dendrimers was evaluated against E. coli ATCC 25922, P. aeruginosa ATCC 27853 and S. aureus ATCC 29213 strains. The MIC values were determined by the broth microdilution method. Briefly, the different strains were grown in Muller Hinton broth cation adjusted (MHBCA) medium overnight at 37 °C with shaking at 200 rpm. The bacterial cultures were then adjusted to OD625nm of 0.08–0.1, and 5 μL of each diluted suspension was added to 96-well plates previously filled with MHBCA and serially diluted peptides. Plates were incubated for 24 h at 37 °C. Finally, the MIC was determined macroscopically, based on the visual turbidity of the wells.

E. coli 208691 = experiment: microbe, parasite or virus in culture
Protocol: as §1, §2

E. coli 5545 = experiment: microbe, parasite or virus in culture; details: Escherichia coli; MDR isolate E. coli 5545; read-out: MIC
Protocol: as §1, §2

E. coli 7259 = experiment: microbe, parasite or virus in culture; details: Escherichia coli; MDR isolate E. coli 7259; read-out: MIC
Protocol: as §1, §2

E. coli 7987 = experiment: microbe, parasite or virus in culture; details: Escherichia coli; MDR isolate E. coli 7987; read-out: MIC
Protocol: as §1, §2

E. coli 8248 = experiment: microbe, parasite or virus in culture; details: Escherichia coli; MDR isolate E. coli 8248; read-out: MIC
Protocol: as §1, §2

P. aeruginosa P12 = experiment: microbe, parasite or virus in culture; details: MDR isolate P. aeruginosa P12
Protocol: as §1, §2

P. aeruginosa P13 = experiment: microbe, parasite or virus in culture
Protocol: as §1, §2

P. aeruginosa P15 = experiment: microbe, parasite or virus in culture
Protocol: as §1, §2

P. aeruginosa P16 = experiment: microbe, parasite or virus in culture; details: MDR isolate P. aeruginosa P16
Protocol: as §1, §2

P. aeruginosa P17 = experiment: microbe, parasite or virus in culture
Protocol: as §1, §2

E. coli ATCC 25922 = details: ATCC 25922, 24 h
Protocol: as §2

P. aeruginosa ATCC 27853 = details: ATCC 27853, 24 h
Protocol: as §2

S. aureus ATCC 29213 = details: ATCC 29213, 24 h
Protocol: as §2

[1] = Pseudomonas aeruginosa, read-out: MIC

| SMILES | MIC E. coli ATCC 25922 (E. coli ATCC 25922) [µg/mL] | MIC P. aeruginosa ATCC 27853 (P. aeruginosa ATCC 27853) [µg/mL] | MIC S. aureus ATCC 29213 (S. aureus ATCC 29213) [µg/mL] | also measured |
| --- | --- | --- | --- | --- |
| O=C(O)c1cn(C2CC2)c2cc(N3CCNCC3)c(F)cc2c1=O [Ciprofloxacin, reference compound] |  |  |  | MIC (E. coli 13974): 32 µg/mL (≈ 96.6 µM); MIC (E. coli 208691; Escherichia coli, 208691): 256 µg/mL (≈ 773 µM); MIC (E. coli 5545): 64 µg/mL (≈ 193 µM); MIC (E. coli 7259): 32 µg/mL (≈ 96.6 µM); MIC (E. coli 7987): 32 µg/mL (≈ 96.6 µM); MIC (E. coli 8248): 32 µg/mL (≈ 96.6 µM); MIC (P. aeruginosa P12; [1]): 64 µg/mL (≈ 193 µM); MIC (P. aeruginosa P13; Pseudomonas aeruginosa, P13): 128 µg/mL (≈ 386 µM); MIC (P. aeruginosa P15; Pseudomonas aeruginosa, P15): 256 µg/mL (≈ 773 µM); MIC (P. aeruginosa P16; [1]): 64 µg/mL (≈ 193 µM); MIC (P. aeruginosa P17; Pseudomonas aeruginosa, P17): 256 µg/mL (≈ 773 µM) |
| CC(=O)NCCNc1nc(NCCNC(C)=O)nc(Oc2ccc(C(=O)N[C@@H](CC(C)C)C(=O)N[C@@H](CCCCN)C(=O)N[C@@H](CC(C)C)C(=O)N[C@@H](CCCCN)C(=O)N[C@@H](CC(C)C)C(=O)N[C@@H](CCCCN)C(N)=O)cc2)n1 [D, (Ac-EDA)2-TA-PHBA-(LK)3-NH2] (X4-LKLKLK-NH2) | >64 | >64 | >64 |  |
| CC(=O)NCCNc1nc(NCCNC(C)=O)nc(N[C@@H](CC(C)C)C(=O)N[C@@H](CCCCN)C(=O)N[C@@H](CC(C)C)C(=O)N[C@@H](CCCCN)C(=O)N[C@@H](CC(C)C)C(=O)N[C@@H](CCCCN)C(N)=O)n1 [E, (Ac-EDA)2-TA-(LK)3-NH2] (H-[X3]KLKLK-NH2) | >64 | >64 | >64 |  |
| CC[C@H](C)CCCCC(=O)N[C@@H](CCN)C(=O)N[C@H](C(=O)N[C@@H](CCN)C(=O)N[C@H]1CCNC(=O)[C@H]([C@@H](C)O)NC(=O)[C@H](CCN)NC(=O)[C@H](CCN)NC(=O)[C@H](CC(C)C)NC(=O)[C@@H](CC(C)C)NC(=O)[C@H](CCN)NC1=O)[C@@H](C)O [Colistin, reference compound] (X2-[Dab]T[Dab][Dab][Dab][dL]L[Dab][Dab]T; lactam 4-C (inferred); N-terminus assumed) |  |  |  | MIC (E. coli 208691; MDR isolate E. coli 208691): 0.5 µg/mL (≈ 0.428 µM); MIC (P. aeruginosa P12): 64 µg/mL (≈ 54.7 µM); MIC (P. aeruginosa P13; MDR isolate P. aeruginosa P13): 32 µg/mL (≈ 27.4 µM); MIC (P. aeruginosa P15; MDR isolate P. aeruginosa P15): >128 µg/mL; MIC (P. aeruginosa P16): 16 µg/mL (≈ 13.7 µM); MIC (P. aeruginosa P17; MDR isolate P. aeruginosa P17): >8 µg/mL |
| CC(=O)NCCNc1nc(NCCNC(C)=O)nc(Oc2ccc(C(=O)NCC(=O)N[C@@H](Cc3ccccc3)C(=O)N[C@@H](CC(C)C)C(N)=O)cc2)n1 [C, (Ac-EDA)2-TA-PHBA-GFL-NH2] | >64 | >64 | >64 |  |
| CC(C)C[C@H](NC(=O)[C@H](CCCCN)NC(=O)[C@H](CC(C)C)NC(=O)[C@H](CCCCN)NC(=O)[C@@H](N)CC(C)C)C(=O)N[C@@H](CCCCN)C(N)=O [A, H-Leu-Lys-Leu-Lys-Leu-Lys-NH2] (H-LKLKLK-NH2) | >64 | >64 | >64 |  |

Now from value to molecule, other results behind:

| MIC E. coli ATCC 25922 (E. coli ATCC 25922) [µg/mL] | MIC P. aeruginosa ATCC 27853 (P. aeruginosa ATCC 27853) [µg/mL] | MIC S. aureus ATCC 29213 (S. aureus ATCC 29213) [µg/mL] | SMILES | also measured |
| --- | --- | --- | --- | --- |
| >64 | >64 | >64 | CC(C)C[C@H](NC(=O)[C@H](CCCCN)NC(=O)[C@H](CC(C)C)NC(=O)[C@H](CCCCN)NC(=O)[C@H](CC(C)C)NC(=O)[C@H](CCCCN)NC(=O)[C@H](CC(C)C)NC(=O)[C@H](CCCCN)NC(=O)[C@H](CC(C)C)NC(=O)[C@H](CCCCN)NC(=O)[C@H](CC(C)C)NC(=O)[C@H](CCCCN)NC(=O)[C@H](CC(C)C)NC(=O)[C@H](CCCCN)NC(=O)[C@H](CC(C)C)NC(=O)[C@H](CCCCN)NC(=O)[C@@H](N)CC(C)C)C(=O)N[C@@H](CCCCN)C(N)=O [G, H-(Leu-Lys)9-NH2] (H-LKLKLKLKLKLKLKLKLK-NH2) |  |
| 32 (≈ 13.8 µM) | >64 | 64 (≈ 27.6 µM) | CC(C)C[C@H](NC(=O)[C@H](CCCCN)NC(=O)[C@H](CC(C)C)NC(=O)[C@H](CCCCN)NC(=O)[C@H](CC(C)C)NC(=O)[C@H](CCCCNC(=O)[C@H](CCCCN)NC(=O)[C@H](CC(C)C)NC(=O)[C@H](CCCCN)NC(=O)[C@H](CC(C)C)NC(=O)[C@H](CCCCN)NC(=O)[C@@H](N)CC(C)C)NC(=O)[C@H](CCCCN)NC(=O)[C@H](CC(C)C)NC(=O)[C@H](CCCCN)NC(=O)[C@H](CC(C)C)NC(=O)[C@H](CCCCN)NC(=O)[C@@H](N)CC(C)C)C(=O)N[C@@H](CCCCN)C(N)=O [F, H-[(LK)3]2-K-(LK)3-NH2] (I: H-LKLKLKKLKLKLK-NH2 / II: H-LKLKLK; amide I:7-II:C) |  |
| 64 (≈ 30.5 µM) | 32 (≈ 15.3 µM) | >64 | CC(C)C[C@H](NC(=O)[C@H](Cc1ccccc1)NC(=O)CNC(=O)c1ccc(Oc2nc(NCCNC(=O)[C@H](CCCCN)NC(=O)[C@H](CC(C)C)NC(=O)[C@H](CCCCN)NC(=O)[C@H](CC(C)C)NC(=O)[C@H](CCCCN)NC(=O)[C@@H](N)CC(C)C)nc(NCCNC(=O)[C@H](CCCCN)NC(=O)[C@H](CC(C)C)NC(=O)[C@H](CCCCN)NC(=O)[C@H](CC(C)C)NC(=O)[C@H](CCCCN)NC(=O)[C@@H](N)CC(C)C)n2)cc1)C(N)=O [B, H-[(LK)3-EDA]2-TA-PHBA-GFL-NH2] |  |
